Test results: paper PMC12830947, “Structure and mechanism of the broad spectrum CRISPR-associated ring nuclease Crn4” (Nature Communications, 2025)

Assays:
Crn4a = molecular target: T1, Crn4a (Actinomyces procaprae, UniProt Z9F5G1FLT2); assay: X-ray co-crystal structure, […] A; type: binding; details: active site at dimer interface, one cA6 per dimer; two Mg2+; pH 5.5; inactive variant
T1 construct: synthetic codon-optimised gene, pEhisV5TEV, E. coli C43(DE3); His tag removed by TEV; homodimer, one cA6 per dimer at the dimer interface
T1 sequence (Z9F5G1FLT2 1-149): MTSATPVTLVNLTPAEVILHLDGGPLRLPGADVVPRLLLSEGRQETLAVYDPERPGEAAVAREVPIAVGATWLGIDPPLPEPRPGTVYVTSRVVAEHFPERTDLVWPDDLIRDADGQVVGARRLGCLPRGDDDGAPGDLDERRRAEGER

[1] = molecular target: Actinomyces procaprae Crn4a H15A variant (Actinomyces procaprae); assay: crystal structure; Crn4a H15A at 11 mg/mL with 1.2 molar excess of cA6, sitting drop at 293 K, 23.8% PEG 3350, 0.2 M magnesium chloride, 0.1 M Bis-Tris pH 5.5; 1.44 Å
[2] = molecular target: Actinomyces procaprae Crn4a (CRISPR ring nuclease 4, subfamily a), wild type (Actinomyces procaprae); assay: crystal structure; apo Crn4a at 13 mg/mL, sitting drop at 293 K, 0.1 M sodium acetate pH 4.5, 22% v/v PEG Smear Broad; 2.34 Å
Crn4b = molecular target: T2, Crn4b (Hyphomicrobiales bacterium, UniProt A0ACM8DFW0); assay: HPLC ring nuclease assay; type: biochemical; details: pH 7.5, 250 mM NaCl, 1 mM EDTA, 37 C
T2 construct: synthetic codon-optimised gene, pEhisV5TEV, E. coli C43(DE3); His tag removed by TEV; homodimer
T2 sequence (A0ACM8DFW0 5-128): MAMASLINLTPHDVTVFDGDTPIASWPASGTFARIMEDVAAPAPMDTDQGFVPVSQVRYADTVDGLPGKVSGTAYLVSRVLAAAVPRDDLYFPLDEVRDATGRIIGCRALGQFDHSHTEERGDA

[3] = molecular target: Hyphomicrobiales bacterium Crn4b (CRISPR ring nuclease 4, subfamily b), wild type (Hyphomicrobiales bacterium); assay: crystal structure; apo Crn4b at 15 mg/mL, sitting drop at 293 K, 20% PEG 6000, 10% ethylene glycol, 0.1 M calcium chloride; 1.09 Å

## Nc1ncnc2c1ncn2[C@@H]1O[C@@H]2COP(=O)(O)O[C@H]3[C@@H](O)[C@H](n4cnc5c(N)ncnc54)O[C@@H]3COP(=O)(O)O[C@H]3[C@@H](O)[C@H](n4cnc5c(N)ncnc54)O[C@@H]3COP(=O)(O)O[C@H]3[C@@H](O)[C@H](n4cnc5c(N)ncnc54)O[C@@H]3COP(=O)(O)O[C@H]3[C@@H](O)[C@H](n4cnc5c(N)ncnc54)O[C@@H]3COP(=O)(O)O[C@H]3[C@@H](O)[C@H](n4cnc5c(N)ncnc54)O[C@@H]3COP(=O)(O)O[C@H]2[C@H]1O [cA6, cyclic hexa-adenylate]
Crn4a
  X-ray co-crystal structure, 1.44 A: The structure of Crn4a in complex with cA6 shows the ligand binds at the dimer interface

## Actinomyces procaprae Crn4a H15A variant (enzyme)
[1]
  stoichiometry N: 2

## Actinomyces procaprae Crn4a (CRISPR ring nuclease 4, subfamily a), wild type (enzyme)
[2]
  stoichiometry N: 2

## Nc1ncnc2c1ncn2[C@@H]1O[C@@H]2COP(=O)(O)O[C@H]3[C@@H](O)[C@H](n4cnc5c(N)ncnc54)O[C@@H]3COP(=O)(O)O[C@H]3[C@@H](O)[C@H](n4cnc5c(N)ncnc54)O[C@@H]3COP(=O)(O)O[C@H]2[C@H]1O [cA3]
Crn4b; intermediate A3>P
  HPLC ring nuclease assay: Crn4b degraded cA4 and cA3 but was inactive against cA6

## Hyphomicrobiales bacterium Crn4b (CRISPR ring nuclease 4, subfamily b), wild type (enzyme)
[3]
  stoichiometry N: 2

## Nc1ncnc2c1ncn2[C@@H]1O[C@@H]2COP(=O)(O)O[C@H]3[C@@H](O)[C@H](n4cnc5c(N)ncnc54)O[C@@H]3COP(=O)(O)O[C@H]3[C@@H](O)[C@H](n4cnc5c(N)ncnc54)O[C@@H]3COP(=O)(O)O[C@H]3[C@@H](O)[C@H](n4cnc5c(N)ncnc54)O[C@@H]3COP(=O)(O)O[C@H]2[C@H]1O [cA4, cyclic tetra-adenylate]
Crn4b; sequential cleavage via A4>P
  HPLC ring nuclease assay: Crn4b degraded cA4 and cA3 but was inactive against cA6
